According to patent publication US7166589B2, “Quinoline derivatives” (Hoffmann-La Roche Inc., priority 2001, dated 2007):

Molecular target: T1, mouse NPY5-receptor (mNPY5) (Mus musculus, UniProt O70342)
T1 construct: The full-length cDNA encoding the mouse NPY5 (mNPY5) receptor was amplified from mouse brain cDNA; expressed in transfected cells
T1 sequence (O70342 1-466): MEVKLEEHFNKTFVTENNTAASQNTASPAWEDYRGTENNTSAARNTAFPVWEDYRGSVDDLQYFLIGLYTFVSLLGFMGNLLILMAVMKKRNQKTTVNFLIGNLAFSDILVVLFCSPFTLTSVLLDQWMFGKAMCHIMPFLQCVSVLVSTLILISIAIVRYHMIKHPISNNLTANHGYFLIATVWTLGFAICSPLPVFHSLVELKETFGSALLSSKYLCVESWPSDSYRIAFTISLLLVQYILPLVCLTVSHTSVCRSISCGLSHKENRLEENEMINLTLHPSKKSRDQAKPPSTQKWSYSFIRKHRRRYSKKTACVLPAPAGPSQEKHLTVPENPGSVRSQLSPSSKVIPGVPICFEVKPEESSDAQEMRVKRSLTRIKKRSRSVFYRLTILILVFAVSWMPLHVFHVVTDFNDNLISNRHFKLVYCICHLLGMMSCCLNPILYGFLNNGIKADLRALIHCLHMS
Assay: Radioligand competition binding, [125I]PYY, membranes of HEK293 cells expressing recombinant mouse NPY5 receptor
Settings: 100 pM [125I]labelled peptide YY, 1 h at 22° C.
Excerpt: The full-length cDNA encoding the mouse NPY5 (mNPY5) receptor was amplified from mouse brain cDNA using specific primers, designed based on the published sequence, and Pfu DNA-Polymerase (Stratagene). The amplification product was subcloned into the mammalian expression vector pcDNA3 using Eco RI and XhoI restriction sites. Positive clones were sequenced and one clone, encoding the published sequence was selected for generation of stable cell clones.
Human embryonic kidney 293 (HEK293) cells were transfected with 10 μg mNPY5 DNA using the lipofectamine reagent (Gibco BRL) according to the manufacturer's instruction. Two days after transfection, geneticin selection (1 mg/ml) was initiated and several stable clones were isolated. One clone was further used for pharmacological characterization.
Human embryonic kidney 293 cells (HEK293), expressing recombinant mouse NPY5-receptor (mNPY5) were broken by three freeze/thawing cycles in hypotonic Tris buffer (5 mM, pH 7.4, 1 mM MgCl2), homogenized and centrifuged at 72,000×g for 15 min. The pellet was washed twice with 75 mM Tris buffer, pH 7.4, containing 25 mM MgCl2 and 250 mM sucrose, 0.1 mM phenylmethylsulfonylfluoride and 0.1 mM 1,10-pheneanthrolin, resuspended in the same buffer and stored in aliquots at −80° C. Protein was determined according to the method of Lowry using bovine serum albumine (BSA) as a standard.

| SMILES | IC50 |
| --- | --- |
| Cc1cc(N2CCCC2)c2ccc(CNc3ccc(C#N)cc3)cc2n1 [Example 13, 4-[(2-Methyl-4-pyrrolidin-1-yl-quinolin-7-ylmethyl)-amino]-benzonitrile] | 130 nM |
| Cc1cc(N2CCCC2)c2ccc(COc3ccc(C#N)cc3)cc2n1 [Example 5, 4-(2-Methyl-4-pyrrolidin-1-yl-quinolin-7-ylmethoxy)-benzonitrile] | 22 nM |
